Assay results: ChEMBL document CHEMBL1201862, “PubChem BioAssay data set” (2004)
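1) Cells in 96-well plates. 2) Compound, 48 h, 5 concentrations. 3) Linear interpolation between surrounding doses. 4) Unreached endpoint = highest concentration. At the GI50, growth is halved.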 Active and inactive are the calls of the source. Rule as the data show it: active = GI50 up to about 1.1 µM and inactive = higher. Peptide text beside a SMILES is read from it.

How the values were obtained:
Assay in all cases: growth of human tumour cells (NCI), 48 h
[1] = system: SNB-19
[2] = system: NCI-H460
[3] = system: NCI-H226
[4] = system: SN12C
[5] = system: OVCAR-3
[6] = system: T47D
[7] = system: UACC-257
[8] = system: Hs-578T
[9] = system: RPMI-8226
[10] = system: OVCAR-8
[11] = system: SNB-75
[12] = system: NCI-H522
[13] = system: COLO 205
[14] = system: OVCAR-5
[15] = system: RXF 393
[16] = system: K562
[17] = system: CCRF-CEM
[18] = system: KM12
[19] = system: HCC 2998
[20] = system: SF-295
[21] = system: SK-OV-3
[22] = system: OVCAR-4
[23] = system: HCT-15
[24] = system: SR
[25] = system: NCI/ADR-RES
[26] = system: UO-31
[27] = system: NCI-H23
[28] = system: SF-268
[29] = system: EKVX
[30] = system: HOP-62
[31] = system: LOX IMVI
[32] = system: TK-10
[33] = system: IGROV-1
[34] = system: DU-145
[35] = system: MDA-MB-435
[36] = system: SK-MEL-2
[37] = system: 786-0
[38] = system: HCT-116
[39] = system: Malme-3M
[40] = system: PC-3
[41] = system: MDA-N
[42] = system: MCF7
[43] = system: MOLT-4
[44] = system: UACC-62
[45] = system: A549
[46] = system: BT-549
[47] = system: SK-MEL-5
[48] = system: ACHN
[49] = system: A498
[50] = system: MDA-MB-231
[51] = system: HT-29
[52] = system: U-251
[53] = system: SW-620
[54] = system: M14
[55] = system: CAKI-1
[56] = system: HOP-92
[57] = system: SK-MEL-28
[58] = system: HL-60
[59] = system: SF-539

CC(=O)NC1C(OC(C)C(=O)NC(C(=O)NC(CCC(=O)NCCCNC2c3ccccc3Nc3cccc([N+](=O)[O-])c32)C(N)=O)C(C)C)C(O)C(CO)OC1(C)OCc1ccccc1 (stereo not drawn)
GI50 [1]: 1.56 µM (inactive)
GI50 [2]: 0.108 µM (active)
GI50 [3]: 1.13 µM (inactive)
GI50 [4]: 0.822 µM (active)
GI50 [5]: 0.946 µM (active)
GI50 [6]: 1.73 µM (inactive)
GI50 [7]: 2.33 µM (inactive)
GI50 [8]: 1.64 µM (inactive)
GI50 [9]: 0.353 µM (active)
GI50 [10]: 1.1 µM (active)
GI50 [11]: 1.91 µM (inactive)
GI50 [12]: 0.637 µM (active)
GI50 [13]: 0.556 µM (active)
GI50 [14]: 3.94 µM (inactive)
GI50 [15]: 0.36 µM (active)
GI50 [16]: 0.363 µM (active)
GI50 [17]: 1.02 µM (active)
GI50 [18]: 1.77 µM (inactive)
GI50 [19]: 671 nM (active)
GI50 [20]: 1.62 µM (inactive)
GI50 [21]: 1.67 µM (inactive)
GI50 [22]: 1.78 µM (inactive)
GI50 [23]: 0.463 µM
GI50 [24]: 0.215 µM (active)
GI50 [25]: 2.02 µM (inactive)
GI50 [26]: 1.25 µM (inactive)
GI50 [27]: 1.61 µM (inactive)
GI50 [28]: 0.998 µM (active)
GI50 [29]: 1.54 µM (inactive)
GI50 [30]: 1.27 µM (inactive)
GI50 [31]: 1.47 µM (inactive)
GI50 [32]: 0.133 µM (active)
GI50 [33]: 1.6 µM (inactive)
GI50 [34]: 0.264 µM (active)
GI50 [35]: 0.579 µM (active)
GI50 [36]: 1.22 µM (inactive)
GI50 [37]: 0.536 µM (active)
GI50 [38]: 0.256 µM (active)
GI50 [39]: 1.12 µM (inactive)
GI50 [40]: 1.37 µM (inactive)
GI50 [41]: 0.634 µM (active)
GI50 [42]: 0.343 µM (active)
GI50 [43]: 0.355 µM (active)
GI50 [44]: 0.577 µM (active)
GI50 [45]: 0.399 µM (active)
GI50 [46]: 1.63 µM (inactive)
GI50 [47]: 0.198 µM (active)
GI50 [48]: 0.621 µM (active)
GI50 [49]: 1.93 µM (inactive)
GI50 [50]: 0.54 µM (active)
GI50 [51]: 0.152 µM (active)
GI50 [52]: 1.39 µM (inactive)
GI50 [53]: 0.291 µM (active)
GI50 [54]: 1.18 µM (inactive)
GI50 [55]: 1.33 µM (inactive)

CC(=O)NC(CS)C(=O)NC(CO)C(=O)NC(CO)C(=O)NC(Cc1c[nH]c2ccccc12)C(=O)N1CCCC1C(=O)NC(CO)C(=O)NC(Cc1c[nH]c2ccccc12)C(=O)NC(Cc1c[nH]cn1)C(=O)NC(CO)C(=O)NC(Cc1c[nH]c2ccccc12)C(=O)NCC(=O)NCC(=O)NC(C)C(=O)NC(CCC(N)=O)C(=O)NC(CCCCN)C(=O)NC(C)C(=O)NC(CCCNC(=N)N)C(=O)NC(CCCCN)C(N)=O (stereo not drawn) (Ac-CSSWPSWHSWGGAQKARK-NH2; configuration not given here)
GI50 [1]: > 50 µM (inactive)
GI50 [2]: 12.4 µM (inactive)
GI50 [3]: > 50 µM (inactive)
GI50 [4]: 43 µM (inactive)
GI50 [5]: > 50 µM (inactive)
GI50 [6]: 11 µM (inactive)
GI50 [7]: 10 µM (inactive)
GI50 [8]: 29.2 µM (inactive)
GI50 [9]: 39 µM (inactive)
GI50 [10]: 42.6 µM (inactive)
GI50 [11]: 13.9 µM (inactive)
GI50 [12]: 20.5 µM (inactive)
GI50 [13]: 12.8 µM (inactive)
GI50 [14]: > 50 µM (inactive)
GI50 [15]: 10 µM (inactive)
GI50 [16]: 10.3 µM (inactive)
GI50 [17]: 17.7 µM (inactive)
GI50 [18]: 11.6 µM (inactive)
GI50 [20]: > 50 µM (inactive)
GI50 [21]: > 50 µM (inactive)
GI50 [22]: > 50 µM (inactive)
GI50 [23]: 41.3 µM
GI50 [24]: 11.8 µM (inactive)
GI50 [56]: > 50 µM (inactive)
GI50 [25]: > 50 µM (inactive)
GI50 [26]: > 50 µM (inactive)
GI50 [27]: 14.8 µM (inactive)
GI50 [28]: 16.7 µM (inactive)
GI50 [29]: 28.3 µM (inactive)
GI50 [30]: > 50 µM (inactive)
GI50 [31]: 46.3 µM (inactive)
GI50 [32]: > 50 µM (inactive)
GI50 [57]: 11.1 µM (inactive)
GI50 [33]: > 50 µM (inactive)
GI50 [34]: 16.8 µM (inactive)
GI50 [35]: 15.7 µM (inactive)
GI50 [36]: 26.4 µM (inactive)
GI50 [37]: 10.1 µM (inactive)
GI50 [38]: 34 µM (inactive)
GI50 [58]: 12.4 µM (inactive)
GI50 [59]: 17.1 µM (inactive)
GI50 [39]: 10.8 µM (inactive)
GI50 [40]: > 50 µM (inactive)
GI50 [41]: 19.1 µM (inactive)
GI50 [42]: 18.9 µM (inactive)
GI50 [43]: 29.8 µM (inactive)
GI50 [44]: 10.9 µM (inactive)
GI50 [45]: > 50 µM (inactive)
GI50 [46]: 14.4 µM (inactive)
GI50 [47]: 11 µM (inactive)
GI50 [48]: 17.7 µM (inactive)
GI50 [49]: > 50 µM (inactive)
GI50 [50]: 8.49 µM (inactive)
GI50 [51]: > 50 µM (inactive)
GI50 [52]: 13 µM (inactive)
GI50 [53]: 23.4 µM (inactive)
GI50 [54]: 23.2 µM (inactive)
GI50 [55]: 11.9 µM (inactive)
